Assay results from publication PMC7560981 (Medicinal chemistry research : an international journal for …, 2020).
Read-outs that look alike come from different tables or passages of the source.

Tests used:
[1] = ref Karpova et a., 2019; cited from earlier work
[2] = test system: cancer cell lines; details: ref Nieborowska-Skorska et al., 2019, cited from earlier work
[3] = ref Karpova et a., 2019; cited from earlier work; remark: listed apart in the source
[4] = biological target: H4-stimulated PARP1 (human Parp-1) (Homo sapiens, UniProt P09874); test: Inhibition of H4-stimulated PARP1 activation; format: biochemical; details: human Parp-1, NAD+
[5] = Stability in mouse liver microsomes; format: in vitro ADME; details: 1 μM, 37 °C
[6] = Stability in human liver microsomes; format: in vitro ADME; details: 1 μM, 37 °C
[7] = Maximum kinetic aqueous solubility; details: 2% DMSO/phosphate buffer pH 7.4; theoretical maximum 200 μM
[8] = 90 min, pH 7.4
[9] = test system: Nalm-6 isogenic RAD54−/− human leukemia cells; format: cell-based; details: clonogenic assay
[10] = H4/PARP Inhibition IC50, histone H4-coated plates
[11] = read-out: H4/PARP Inhibition IC50, histone H4-coated plates

Chain of H4-stimulated PARP1 (human Parp-1) (P09874 whole entry): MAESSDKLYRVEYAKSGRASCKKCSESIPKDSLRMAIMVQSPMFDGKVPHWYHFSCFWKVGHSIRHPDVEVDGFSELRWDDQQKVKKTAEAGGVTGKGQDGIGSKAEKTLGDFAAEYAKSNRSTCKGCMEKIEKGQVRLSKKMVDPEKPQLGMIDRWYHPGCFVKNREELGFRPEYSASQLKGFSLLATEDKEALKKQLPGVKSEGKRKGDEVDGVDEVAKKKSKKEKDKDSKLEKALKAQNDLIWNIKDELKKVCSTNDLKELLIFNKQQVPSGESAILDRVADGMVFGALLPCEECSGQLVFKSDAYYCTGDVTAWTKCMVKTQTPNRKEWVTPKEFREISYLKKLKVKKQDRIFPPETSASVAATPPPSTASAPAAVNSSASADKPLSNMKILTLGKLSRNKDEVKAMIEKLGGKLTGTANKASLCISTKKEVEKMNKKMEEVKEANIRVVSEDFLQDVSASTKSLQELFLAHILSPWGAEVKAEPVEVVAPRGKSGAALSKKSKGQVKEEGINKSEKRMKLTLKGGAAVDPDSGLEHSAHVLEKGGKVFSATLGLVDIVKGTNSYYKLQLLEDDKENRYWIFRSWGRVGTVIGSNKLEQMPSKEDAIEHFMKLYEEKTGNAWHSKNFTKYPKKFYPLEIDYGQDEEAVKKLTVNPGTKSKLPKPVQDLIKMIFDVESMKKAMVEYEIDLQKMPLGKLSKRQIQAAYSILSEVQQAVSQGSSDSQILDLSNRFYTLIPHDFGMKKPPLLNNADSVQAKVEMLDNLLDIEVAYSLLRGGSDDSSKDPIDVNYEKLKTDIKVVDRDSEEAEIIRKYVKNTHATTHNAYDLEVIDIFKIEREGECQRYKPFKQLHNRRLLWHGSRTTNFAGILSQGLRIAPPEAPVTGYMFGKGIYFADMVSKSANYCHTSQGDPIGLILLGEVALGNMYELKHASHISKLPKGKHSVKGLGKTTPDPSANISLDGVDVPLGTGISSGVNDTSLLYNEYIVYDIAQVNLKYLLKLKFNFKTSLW

C[N+]1(CC(=O)OC2CCCCCCCCCCC2)CCCCC1.[I-] [Compound 1, 1-(2-(Cyclododecyloxy)-2-oxoethyl)-1-methylpiperidin-1-ium iodide]
plasma protein binding (in words) [1]: relatively high | effect in combination with olaparib (in words) ([2]; a number of cell lines): synergistic effect | potency in in vitro proliferation assays compared with olaparib (in words) [2]: more potent than olaparib | in vivo half-life (in words) [3]: longer than expected | IC50 [4, 10]: 104 nM

C[N+]1(CC(=O)OC2CCCCCCCCCCC2)CCCC1.[I-] [Compound 2]
Liver Microsomal Stability (t1/2, min) Mouse + NADPH [5]: 3.8 min | Liver Microsomal Stability (t1/2, min) Human + NADPH [6]: < 2 min | IC50 [4, 11]: 52.4 nM

C[N+]1(CC(=O)OC2CCCCCCCCCCC2)CCCCCC1 [Compound 3, 1-(2-(Cyclododecyloxy)-2-oxoethyl)-1-methylazepan-1-ium iodide]
IC50 [4, 10]: 54 nM

CC1(C)CC[N+](C)(CC(=O)OC2CCCCCCCCCCC2)CC1.[I-] [Compound 4, 1-(2-(Cyclododecyloxy)-2-oxoethyl)-1,4,4-trimethylpiperidin-1-ium iodide]
IC50 [4, 10]: 45.6 nM | Max. Aq. Solubility [7]: 95 µM

C[N+]1(CC(=O)OC2CCCCCCCCCCC2)CCOCC1.[I-] [Compound 5, 4-(2-(Cyclododecyloxy)-2-oxoethyl)-4-methylmorpholin-4-ium iodide]
Max. Aq. Solubility [8]: 200 µM | IC50 [4, 10]: 34.5 nM

C[N+]1(CC(=O)OC2CCCCCCCCCCC2)CCSCC1.[I-] [Compound 6, 4-(2-(Cyclododecyloxy)-2-oxoethyl)-4-methylthiomorphilin-4-ium iodide]
Liver Microsomal Stability (t1/2, min) Mouse + NADPH [5]: 4 min | Liver Microsomal Stability (t1/2, min) Human + NADPH [6]: < 2 min | IC50 [4, 11]: 156 nM

C[N+]1(CC(=O)OC2CCCCCCCCCCC2)CCNCC1.[I-] [Compound 7, 1-(2-(Cyclododecyloxy)-2-oxoethyl)-1-methylpiperazinium iodide]
anti-clonogenic activity against BRCA-deficient NALM6 leukemia cells (in words) [9]: potent anti-clonogenic activity | IC50 [4, 10]: 466 nM

CC(C)(C)OC(=O)N1CC[N+](C)(CC(=O)OC2CCCCCCCCCCC2)CC1.[I-] [Compound 8, 4-(tert-Butoxycarbonyl)-1-(2-(cyclodedecyloxy)-2-oxoethyl)-1-methylpiperazin-1-ium iodide]
Liver Microsomal Stability (t1/2, min) Mouse + NADPH [5]: 4.1 min | Liver Microsomal Stability (t1/2, min) Human + NADPH [6]: < 2 min | IC50 [4, 11]: 55.8 nM

C[N+]1(CC(=O)OC2CCCCCCCCCCC2)CCC(Cc2ccccc2)CC1 (stereo not drawn) [Compound 9, 4-(Benzyl)-1-(2-(cyclododecyloxy)-2-oxoethyl)-1-methylpiperidin-1ium iodide]
IC50 [4, 10]: 61.8 nM

CC[N+]1(CC(=O)OC2CCCCCCCCCCC2)CCCCC1.[I-] [Compound 10, 1-(2-(Cyclododecyloxy)-2-oxoethyl)-1-ethylpiperidin-1-ium iodide]
Max. Aq. Solubility [8]: 200 µM | IC50 [4, 10]: 174 nM

CCC[N+]1(CC(=O)OC2CCCCCCCCCCC2)CCCCC1 [Compound 11, 1-(2-(Cyclododecyloxy)-2-oxoethyl)-1-(1-propyl)piperidin-1-ium iodide]
IC50 [4, 10]: 142 nM

CCCC[N+]1(CC(=O)OC2CCCCCCCCCCC2)CCCCC1 [Compound 12, 1-(2-(Cyclododecyloxy)-2-oxoethyl)-1-(1-butyl)piperidin-1-ium iodide]
IC50 [4, 10]: 136 nM

CCCCC[N+]1(CC(=O)OC2CCCCCCCCCCC2)CCCCC1 [Compound 13, 1-(2-(Cyclododecyloxy)-2-oxoethyl)-1-(1-pentyl)piperidin-1-ium iodide]
IC50 [4, 10]: 258 nM

C[N+]1(CC(=O)OC2CCCCCCCCC2)CCCCC1 [Compound 14, 1-(2-(Cyclodecyloxy)-2-oxoethyl)-1-methylpiperidin-1-ium iodide]
IC50 [4, 10]: 53.7 nM

C[N+]1(CC(=O)OC2CCCCCCC2)CCCCC1 [Compound 15, 1-(2-(Cyclooctyloxy)-2-oxoethyl)-1-methylpiperidin-1-ium iodide]
IC50 [4, 10]: 80 nM

C[N+]1(CC(=O)OC2CCCCC2)CCCCC1 [Compound 16, 1-(2-(Cyclohexyloxy)-2-oxoethyl)-1-methylpiperidin-1-ium iodide]
IC50 [4, 10]: 77.1 nM

C[N+]1(CC(=O)OC2CCCC2)CCCCC1.[I-] [Compound 17, 1-(2-(Cyclopentyloxy)-2-oxoethyl)-1-methylpiperidin-1-ium iodide]
Max. Aq. Solubility [8]: 200 µM | IC50 [4, 10]: 57.1 nM

CN(C(=O)CO[N+]1(C)CCCCC1)C1CCCCCCCCCCC1 [Compound 18, 1-(2-(Cyclododecyl(methyl)amino)-2-oxoethoxy)-1-methylpiperidin-1ium iodide]
IC50 [4, 11]: 191 nM
